Experimental data: ChEMBL document CHEMBL1201861, “Genomics of Drug Sensitity in Cancer screening data, Wellcome Trust Sanger Institute”

What was measured:
Test in all cases: cells
[1] = system: 23132-87; assay type: functional, cell-based; conditions: Homo sapiens
Description: SANGER: Inhibition of human 23132-87 cell growth in a cell viability assay.

[2] = system: MDA-MB-453; assay type: functional, cell-based; conditions: Homo sapiens
Description: SANGER: Inhibition of human MDA-MB-453 cell growth in a cell viability assay.

[3] = system: CAL-85-1; assay type: functional, cell-based; conditions: Homo sapiens;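 further: growth inhibition of human CAL-85-1 cells, read out with a cell viability assay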
Description: SANGER: Inhibition of human CAL-85-1 cell growth in a cell viability assay.

[4] = system: NCI-H2342; assay type: functional, cell-based; conditions: Homo sapiens;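 further: growth inhibition of the cancer cell line, determined with a cell viability assay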
Description: SANGER: Inhibition of human NCI-H2342 cell growth in a cell viability assay.

[5] = system: PC-14; assay type: functional, cell-based; conditions: Homo sapiens;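 further: cell viability assay measuring inhibition of PC-14 cell growth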
Description: SANGER: Inhibition of human PC-14 cell growth in a cell viability assay.

[6] = system: KYSE-180; assay type: functional, cell-based; conditions: Homo sapiens;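 further: growth inhibition of KYSE-180 cells, read out with a cell viability assay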
Description: SANGER: Inhibition of human KYSE-180 cell growth in a cell viability assay.

[7] = system: COLO-680N; assay type: functional, cell-based; conditions: Homo sapiens;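 further: cell viability assay used to measure inhibition of COLO-680N cell growth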
Description: SANGER: Inhibition of human COLO-680N cell growth in a cell viability assay.

[8] = system: SW1463; assay type: functional, cell-based; conditions: Homo sapiens;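 further: growth inhibition of SW1463 cells, determined with a cell viability assay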
Description: SANGER: Inhibition of human SW1463 cell growth in a cell viability assay.

[9] = system: Kasumi 1; assay type: functional, cell-based, Homo sapiens; conditions: Homo sapiens, Kasumi 1;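 further: growth inhibition of human Kasumi-1 cells, read out by a cell viability assay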
Description: SANGER: Inhibition of human KASUMI-1 cell growth in a cell viability assay.

[10] = system: NCI-H292; assay type: functional, cell-based; conditions: Homo sapiens;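 further: growth inhibition of NCI-H292 cells, read out with a cell viability assay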
Description: SANGER: Inhibition of human NCI-H292 cell growth in a cell viability assay.

[11] = system: KYSE-270; assay type: functional, cell-based; conditions: Homo sapiens;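 further: cell growth inhibition measured with a viability assay in the human KYSE-270 line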
Description: SANGER: Inhibition of human KYSE-270 cell growth in a cell viability assay.

[12] = system: OE33; assay type: functional, cell-based; conditions: Homo sapiens;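 further: growth inhibition of human OE33 cells, measured by a cell viability assay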
Description: SANGER: Inhibition of human OE33 cell growth in a cell viability assay.

[13] = system: SNU-387; assay type: functional, cell-based; conditions: Homo sapiens
Description: SANGER: Inhibition of human SNU-387 cell growth in a cell viability assay.

[14] = system: UACC-893; assay type: functional, cell-based; conditions: Homo sapiens
Description: SANGER: Inhibition of human UACC-893 cell growth in a cell viability assay.

[15] = system: UMC-11; assay type: functional, cell-based; conditions: Homo sapiens;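 further: growth inhibition of UMC-11 cells, read out with a cell viability assay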
Description: SANGER: Inhibition of human UMC-11 cell growth in a cell viability assay.

[16] = system: NCI-H1563; assay type: functional, cell-based; conditions: Homo sapiens;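 further: growth inhibition of human NCI-H1563 cells, read out with a cell viability assay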
Description: SANGER: Inhibition of human NCI-H1563 cell growth in a cell viability assay.

[17] = system: HCC1806; assay type: functional, cell-based; conditions: Homo sapiens;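 further: growth inhibition of the cancer cell line, determined with a cell viability assay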
Description: SANGER: Inhibition of human HCC1806 cell growth in a cell viability assay.

[18] = system: HCT-15; assay type: functional, cell-based; conditions: Homo sapiens;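 further: cell viability readout, IC50 reflecting suppression of HCT-15 cell growth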
Description: SANGER: Inhibition of human HCT-15 cell growth in a cell viability assay.

[19] = system: SK-HEP1; assay type: functional, cell-based, SK-HEP-1; conditions: Homo sapiens;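 further: cell viability readout used to quantify reduction in proliferation of human SK-HEP-1 cells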
Description: SANGER: Inhibition of human SK-HEP-1 cell growth in a cell viability assay.

[20] = system: NCI-H520; assay type: functional, cell-based; conditions: Homo sapiens;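 further: growth inhibition of NCI-H520 cells, measured by a cell viability assay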
Description: SANGER: Inhibition of human NCI-H520 cell growth in a cell viability assay.

[21] = system: MDA-MB-231; assay type: functional, cell-based; conditions: Homo sapiens
Description: SANGER: Inhibition of human MDA-MB-231 cell growth in a cell viability assay.

[22] = system: PFSK-1; assay type: functional, cell-based; conditions: Homo sapiens;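 further: cell viability assay measuring how strongly compounds suppress growth of human PFSK-1 cells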
Description: SANGER: Inhibition of human PFSK-1 cell growth in a cell viability assay.

[23] = system: NCI-H1703; assay type: functional, cell-based; conditions: Homo sapiens;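 further: growth inhibition of NCI-H1703 cells, read out via a cell viability assay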
Description: SANGER: Inhibition of human NCI-H1703 cell growth in a cell viability assay.

[24] = system: NCI-H441; assay type: functional, cell-based; conditions: Homo sapiens;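 further: growth inhibition of NCI-H441 cells, read out with a cell viability assay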
Description: SANGER: Inhibition of human NCI-H441 cell growth in a cell viability assay.

[25] = system: COR-L23; assay type: functional, cell-based; conditions: Homo sapiens;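 further: cell viability assay measuring how strongly compounds suppress growth of COR-L23 cells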
Description: SANGER: Inhibition of human COR-L23 cell growth in a cell viability assay.

[26] = system: AU565; assay type: functional, cell-based; conditions: Homo sapiens;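 further: cell viability assay measuring growth inhibition of human AU565 cells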
Description: SANGER: Inhibition of human AU565 cell growth in a cell viability assay.

[27] = system: NCI-H2052; assay type: functional, cell-based; conditions: Homo sapiens;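 further: growth inhibition of NCI-H2052 cells, read out with a cell viability assay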
Description: SANGER: Inhibition of human NCI-H2052 cell growth in a cell viability assay.

[28] = system: KYSE-140; assay type: functional, cell-based; conditions: Homo sapiens;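 further: cell viability assay measuring growth inhibition in human KYSE-140 cells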
Description: SANGER: Inhibition of human KYSE-140 cell growth in a cell viability assay.

[29] = system: CaR-1; assay type: functional, cell-based; conditions: Homo sapiens;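 further: growth inhibition of human CaR-1 cancer cells, read out with a cell viability assay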
Description: SANGER: Inhibition of human CaR-1 cell growth in a cell viability assay.

[30] = system: SW948; assay type: functional, cell-based; conditions: Homo sapiens;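 further: growth inhibition of SW948 cells, read out with a cell viability assay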
Description: SANGER: Inhibition of human SW948 cell growth in a cell viability assay.

[31] = system: FaDu; assay type: functional, cell-based; conditions: Homo sapiens;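 further: cell viability readout of growth inhibition in FaDu cells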
Description: SANGER: Inhibition of human FADU cell growth in a cell viability assay.

[32] = system: RD; assay type: functional, cell-based; conditions: Homo sapiens
Description: SANGER: Inhibition of human RD cell growth in a cell viability assay.

[33] = system: OVCAR-5; assay type: functional, cell-based; conditions: Homo sapiens;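 further: growth inhibition of human OVCAR-5 cells, read out with a cell viability assay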
Description: SANGER: Inhibition of human OVCAR-5 cell growth in a cell viability assay.

[34] = system: Daoy; assay type: functional, cell-based; conditions: Homo sapiens;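 further: daoy cell growth inhibition, read out as cell viability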
Description: SANGER: Inhibition of human Daoy cell growth in a cell viability assay.

[35] = system: SCC-4; assay type: functional, cell-based; conditions: Homo sapiens;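 further: growth inhibition of human SCC-4 cells, read out as cell viability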
Description: SANGER: Inhibition of human SCC-4 cell growth in a cell viability assay.

[36] = system: MKN-28; assay type: functional, cell-based; conditions: Homo sapiens;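 further: cell viability assay read-out, IC50 reflects suppression of growth of human MKN-28 cells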
Description: SANGER: Inhibition of human MKN28 cell growth in a cell viability assay.

[37] = system: LB373-MEL-D; assay type: functional, cell-based, Homo sapiens; conditions: Homo sapiens, LB373-MEL-D;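 further: growth inhibition of the cell line, read out in a cell viability assay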
Description: SANGER: Inhibition of human LB373-MEL-D cell growth in a cell viability assay.

[38] = system: PC-3; assay type: functional, cell-based; conditions: Homo sapiens;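 further: cell viability assay measuring growth inhibition of PC-3 cells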
Description: SANGER: Inhibition of human PC-3 cell growth in a cell viability assay.

[39] = system: AN3-CA; assay type: functional, cell-based; conditions: Homo sapiens;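 further: growth inhibition of human AN3-CA cells measured by a cell viability assay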
Description: SANGER: Inhibition of human AN3-CA cell growth in a cell viability assay.

[40] = system: EFO-27; assay type: functional, cell-based; conditions: Homo sapiens;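 further: growth inhibition of EFO-27 cells, read out with a cell viability assay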
Description: SANGER: Inhibition of human EFO-27 cell growth in a cell viability assay.

[41] = system: CAL-54; assay type: functional, cell-based; conditions: Homo sapiens;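 further: growth inhibition of CAL-54 cells, read out by a viability measurement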
Description: SANGER: Inhibition of human CAL-54 cell growth in a cell viability assay.

[42] = system: C3A; assay type: functional, cell-based; conditions: Homo sapiens;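 further: growth inhibition of C3A human cells, quantified with a cell viability readout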
Description: SANGER: Inhibition of human C3A cell growth in a cell viability assay.

[43] = system: RERF-LC-MS; assay type: functional, cell-based; conditions: Homo sapiens;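 further: growth inhibition of human RERF-LC-MS cells, read out by a cell viability assay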
Description: SANGER: Inhibition of human RERF-LC-MS cell growth in a cell viability assay.

[44] = system: YAPC; assay type: functional, cell-based; conditions: Homo sapiens;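 further: growth inhibition of YAPC cells, measured with a cell viability assay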
Description: SANGER: Inhibition of human YAPC cell growth in a cell viability assay.

[45] = system: NCI-H1573; assay type: functional, cell-based; conditions: Homo sapiens;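 further: growth inhibition of NCI-H1573 cells, read out with a cell viability assay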
Description: SANGER: Inhibition of human NCI-H1573 cell growth in a cell viability assay.

[46] = system: NCI-H522; assay type: functional, cell-based; conditions: Homo sapiens;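 further: cell viability assay measuring growth inhibition of human NCI-H522 cells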
Description: SANGER: Inhibition of human NCI-H522 cell growth in a cell viability assay.

NC(=O)Nc1cc(-c2cccc(F)c2)sc1C(=O)N[C@H]1CCCNC1 [AZD-7762]
IC50 [1]: 0.683 µM
IC50 [2]: > 2 µM
IC50 [3]: > 2 µM
IC50 [4]: > 2 µM
IC50 [5]: 0.417 µM
IC50 [6]: 0.402 µM
IC50 [7]: > 2 µM
IC50 [8]: > 2 µM
IC50 [9]: < 0.00781 µM
IC50 [10]: 0.898 µM
IC50 [11]: 0.226 µM
IC50 [12]: 0.391 µM
IC50 [13]: 0.243 µM
IC50 [14]: > 2 µM
IC50 [15]: 1.77 µM
IC50 [16]: 0.47 µM
IC50 [17]: 0.0402 µM
IC50 [18]: > 2 µM
IC50 [19]: > 2 µM
IC50 [20]: 1.38 µM
IC50 [21]: 1.6 µM
IC50 [22]: 0.411 µM
IC50 [23]: 0.00643 µM
IC50 [24]: > 2 µM
IC50 [25]: 0.403 µM
IC50 [26]: 0.824 µM
IC50 [27]: > 2 µM
IC50 [28]: 0.13 µM
IC50 [29]: 1.87 µM
IC50 [30]: > 2 µM
IC50 [31]: 0.412 µM
IC50 [32]: > 2 µM
IC50 [33]: 0.139 µM
IC50 [34]: 0.451 µM
IC50 [35]: 1.02 µM
IC50 [36]: > 2 µM
IC50 [37]: > 2 µM
IC50 [38]: > 2 µM
IC50 [39]: 0.837 µM
IC50 [40]: 0.43 µM
IC50 [41]: 0.74 µM
IC50 [42]: > 2 µM
IC50 [43]: 0.677 µM
IC50 [44]: > 2 µM
IC50 [45]: 1.42 µM

CN(NC(=O)CC(=O)NN(C)C(=S)c1ccccc1)C(=S)c1ccccc1 [ELESCLOMOL]
IC50 [1]: 0.0249 µM
IC50 [2]: 0.0347 µM
IC50 [3]: 0.0727 µM
IC50 [4]: 0.0433 µM
IC50 [5]: 0.0247 µM
IC50 [6]: 0.0238 µM
IC50 [7]: 0.187 µM
IC50 [8]: > 0.2 µM
IC50 [9]: > 0.2 µM
IC50 [10]: 0.000886 µM
IC50 [11]: 0.0371 µM
IC50 [12]: > 0.2 µM
IC50 [13]: 0.00949 µM
IC50 [14]: > 0.2 µM
IC50 [15]: > 0.2 µM
IC50 [16]: 0.00413 µM
IC50 [17]: 0.0235 µM
IC50 [18]: 0.15 µM
IC50 [19]: > 0.2 µM
IC50 [20]: 0.135 µM
IC50 [21]: 0.019 µM
IC50 [22]: 0.0127 µM
IC50 [23]: 0.00368 µM
IC50 [24]: > 0.2 µM
IC50 [25]: > 0.2 µM
IC50 [26]: 0.0591 µM
IC50 [27]: 0.0633 µM
IC50 [28]: 0.021 µM
IC50 [29]: > 0.2 µM
IC50 [30]: > 0.2 µM
IC50 [31]: 0.00566 µM
IC50 [32]: 0.0131 µM
IC50 [33]: 0.00183 µM
IC50 [34]: 0.0168 µM
IC50 [35]: > 0.2 µM
IC50 [36]: 0.014 µM
IC50 [37]: 0.0147 µM
IC50 [38]: 0.00789 µM
IC50 [39]: 0.0108 µM
IC50 [40]: 0.00772 µM
IC50 [41]: > 0.2 µM
IC50 [42]: > 0.2 µM
IC50 [43]: 0.00858 µM
IC50 [44]: 0.0703 µM
IC50 [45]: 0.189 µM

CO[C@@H]1[C@H](N(C)C(=O)c2ccccc2)C[C@H]2O[C@]1(C)n1c3ccccc3c3c4c(c5c6ccccc6n2c5c31)C(=O)NC4 [MIDOSTAURIN]
IC50 [1]: > 0.512 µM
IC50 [3]: > 0.512 µM
IC50 [11]: 0.168 µM
IC50 [13]: 0.139 µM
IC50 [15]: > 0.512 µM
IC50 [18]: 0.334 µM
IC50 [27]: > 0.512 µM
IC50 [31]: > 0.512 µM
IC50 [33]: > 0.512 µM
IC50 [35]: 0.24 µM
IC50 [36]: > 0.512 µM
IC50 [38]: > 0.512 µM
IC50 [39]: 0.322 µM
IC50 [41]: 0.209 µM

CS(=O)(=O)N1CCN(Cc2cc3nc(-c4cccc5[nH]ncc45)nc(N4CCOCC4)c3s2)CC1 [PICTILISIB]
IC50 [2]: > 4 µM
IC50 [3]: > 4 µM
IC50 [46]: > 4 µM
IC50 [4]: > 4 µM
IC50 [5]: 3.73 µM
IC50 [6]: > 4 µM
IC50 [7]: > 4 µM
IC50 [8]: > 4 µM
IC50 [10]: 0.974 µM
IC50 [11]: 1.3 µM
IC50 [12]: > 4 µM
IC50 [13]: 3.16 µM
IC50 [14]: > 4 µM
IC50 [15]: > 4 µM
IC50 [16]: 0.916 µM
IC50 [17]: > 4 µM
IC50 [19]: > 4 µM
IC50 [20]: 1.09 µM
IC50 [21]: > 4 µM
IC50 [22]: 1.94 µM
IC50 [24]: > 4 µM
IC50 [25]: 3.37 µM
IC50 [26]: 1.32 µM
IC50 [27]: > 4 µM
IC50 [28]: > 4 µM
IC50 [29]: > 4 µM
IC50 [30]: > 4 µM
IC50 [31]: > 4 µM
IC50 [32]: > 4 µM
IC50 [33]: 0.94 µM
IC50 [34]: > 4 µM
IC50 [35]: > 4 µM
IC50 [36]: > 4 µM
IC50 [38]: > 4 µM
IC50 [39]: 0.34 µM
IC50 [40]: > 4 µM
IC50 [41]: 1.07 µM
IC50 [42]: > 4 µM
IC50 [43]: > 4 µM
IC50 [44]: > 4 µM
IC50 [45]: > 4 µM

CC1=C(/C=C/C(C)=C/C=C/C(C)=C/C(=O)O)C(C)(C)CCC1 [TRETINOIN]
IC50 [1]: > 10 µM
IC50 [2]: > 10 µM
IC50 [3]: > 10 µM
IC50 [4]: > 10 µM
IC50 [5]: > 10 µM
IC50 [6]: 6.7 µM
IC50 [7]: > 10 µM
IC50 [8]: > 10 µM
IC50 [10]: > 10 µM
IC50 [11]: > 10 µM
IC50 [12]: > 10 µM
IC50 [13]: > 10 µM
IC50 [14]: > 10 µM
IC50 [15]: > 10 µM
IC50 [16]: > 10 µM
IC50 [17]: 0.729 µM
IC50 [18]: > 10 µM
IC50 [19]: > 10 µM
IC50 [20]: > 10 µM
IC50 [21]: > 10 µM
IC50 [22]: > 10 µM
IC50 [23]: > 10 µM
IC50 [24]: > 10 µM
IC50 [25]: > 10 µM
IC50 [26]: > 10 µM
IC50 [27]: > 10 µM
IC50 [28]: > 10 µM
IC50 [29]: > 10 µM
IC50 [30]: > 10 µM
IC50 [31]: > 10 µM
IC50 [32]: > 10 µM
IC50 [33]: > 10 µM
IC50 [34]: > 10 µM
IC50 [35]: > 10 µM
IC50 [36]: > 10 µM
IC50 [37]: > 10 µM
IC50 [38]: > 10 µM
IC50 [39]: > 10 µM
IC50 [40]: > 10 µM
IC50 [41]: > 10 µM
IC50 [42]: > 10 µM
IC50 [43]: > 10 µM
IC50 [44]: > 10 µM
IC50 [45]: > 10 µM

NC(=O)c1ccc(N(C(N)=O)c2c(F)cccc2F)nc1-c1ccc(F)cc1F [VX-702]
IC50 [1]: > 2 µM
IC50 [2]: > 2 µM
IC50 [3]: > 2 µM
IC50 [4]: > 2 µM
IC50 [5]: > 2 µM
IC50 [6]: > 2 µM
IC50 [7]: > 2 µM
IC50 [8]: > 2 µM
IC50 [10]: > 2 µM
IC50 [11]: > 2 µM
IC50 [12]: > 2 µM
IC50 [13]: > 2 µM
IC50 [14]: > 2 µM
IC50 [15]: > 2 µM
IC50 [16]: > 2 µM
IC50 [17]: > 2 µM
IC50 [18]: > 2 µM
IC50 [19]: > 2 µM
IC50 [20]: > 2 µM
IC50 [21]: > 2 µM
IC50 [22]: > 2 µM
IC50 [23]: > 2 µM
IC50 [24]: > 2 µM
IC50 [25]: > 2 µM
IC50 [26]: > 2 µM
IC50 [27]: > 2 µM
IC50 [28]: > 2 µM
IC50 [29]: > 2 µM
IC50 [30]: > 2 µM
IC50 [31]: > 2 µM
IC50 [32]: > 2 µM
IC50 [33]: > 2 µM
IC50 [34]: > 2 µM
IC50 [35]: > 2 µM
IC50 [36]: > 2 µM
IC50 [37]: > 2 µM
IC50 [38]: > 2 µM
IC50 [39]: > 2 µM
IC50 [40]: > 2 µM
IC50 [41]: > 2 µM
IC50 [42]: > 2 µM
IC50 [43]: > 2 µM
IC50 [44]: > 2 µM
IC50 [45]: > 2 µM
